Patent publication US9988378B2, “1 H-pyrazole and 4,5-disubstituted thiazole inhibitors of SYK” (Hoffmann-La Roche Inc., priority 2012, dated 2018)

Legend:
[1] = tested on: RAMOS; experiment: RAMOS_V2_IC50; assay type: cell-based; settings: Homo sapiens
[2] = tested on: human whole blood; experiment: IC50: human whole blood; assay type: cell-based
[3] = biological target: T1, recombinant human SYK360-635 (Homo sapiens, UniProt P43405); experiment: SYK kinase assay, 33P ATP filtration (ENZYME_FILTRATION_IC50); assay type: biochemical; settings: SYK aa 360-635 0.5 nM, ATP 20 μM, peptide 5 μM, 30° C. 15 min
T1 construct: truncated construct of Spleen Tyrosine Kinase aa 360-635; made in house
Method: Determination of IC50 of Spleen Tyrosine Kinase (SYK) Inhibition:
SYK kinase assay is a standard kinase assay adapted to a 96 well plate format. This assay is performed in 96-well format for IC50 determination with […] which represented 10 half log dilutions and a 40 μL reaction volume. The assay measures the incorporation of radiolabeled ^33P ATP into an N-terminally biotinylated peptide substrate, derived from naturally occurring phosphoacceptor consensus sequence (Biotin-11aa DY*E). Phosphorylated products were detected upon termination of reactions with EDTA and the addition of Streptavidin coated beads. Representative results are in Table II above.
Assay plates: 96-well MultiScreen 0.65 um filter plates (Millipore Cat. No.: MADVNOB10) Streptavidin coated beads: Streptavidin Sepharose™, suspension 5.0 mL, in 50 mM EDTA/PBS diluted (1:100), (Amersham, Cat. No.: 17-5113-01)
Compounds: 10 mM in 100% dimethylsulfoxide (DMSO), final conc.: compound 0.003-100 uM in 10% DMSO
Enzyme: SYK RPA purified, truncated construct of Spleen Tyrosine Kinase aa 360-635, stock solution 1 mg/mL, MW: 31.2 KDa, final conc.:0.0005 μM.
Peptide 1: biotinylated peptide is derived from a naturally occurring phosphor-acceptor consensus sequence (Biotin-EPEGDYEEVLE), special order from QCB, stock solution 20 mM, final conc.: 5.0 μM.
ATP: Adenosine-5′-triphosphate 20 mM, (ROCHE Cat. No.: 93202720), final concentration: 20 μM
Buffer: HEPES: 2-Hydroxyethyl piperazine-2-ethanesulfonic acid (Sigma, Cat. No.: H-3375) final concentration: 50 mM HEPES pH7.5
BSA: Bovine Serum Albumin Fraction V, fatty acid free (Roche Diagnostics GmbH, Cat. No. 9100221) diluted to a final concentration of 0.1%
EDTA: EDTA stock solution 500 mM, (GIBCO, Cat. No.: 15575-038) final concentration: 0.1 mM
DTT: 1,4-Dithiothreitol (Roche Diagnostics GmbH, Cat. No.: 197777), final conc.: 1 mM MgCl2×6H2O: MERCK, Cat. No.: 105833.1000, final concentration: 10 mM
Assay Dilution Buffer (ADB): 50 mM HEPES, 0.1 mM EGTA, 0.1 mM Na Vanadate, 0.1 mM β-glycerophosphate, 10 mM MgCl2, 1 mM DTT, 0.1% BSA, pH 7.5
Bead wash buffer: 10 g/L PBS (Phosphate buffered saline) with 2M NaCl+1% phosphoric acid.
In 40 μL volume, 26 μL of ADB diluted, purified recombinant human SYK360-635 [0.5 nM] was mixed with 4 μL of 10× concentrations of the test compounds, [usually 100 μM-0.003 μM] in [10%] DMSO and the mixture was incubated for 10 min at RT.
The kinase reaction was initiated by the addition of 10 μL 4× substrate cocktail containing the DYE peptide substrate [0 or 5 μM], ATP [20 μM] and ^33PγATP [2 μCi/rxn]. After incubation at 30° C. for 15 min, the reaction was terminated by the transfer of 25 μL pf the reaction sample to a 96 well 0.65 μm Millipore MADVNOB membrane/plate containing 200 μL 5 mM EDTA and 20% Streptavidine coated beads in PBS.
The unbound radionucleotides were washed under vacuum with 3×250 μL 2M NaCl; 2×250 μL 2M NaCl+1% phosphoric acid; 1×250 μL H2O. After the last wash membrane/plates were transferred to an adaptor plate, heat dried for 15 min at 60° C., and 50 μL scintillation cocktail was added to each well and 4 h later the amount of radioactivity was counted in a top counter.
The percent inhibition was calculated based on the uninhibited enzyme rate: % Inhibition=100/(1+(IC50/Inhibitor conc)^n)
The IC50 was calculated using a non-linear curve fit with XLfit software (ID Business Solution Ltd., Guilford, Surrey, UK).

Row | IC50 [1] [nM] | IC50 [2] [nM] | IC50 [3] [nM] | Compound
1 | 1020 | 2290 | 60 | CC(C)C(=O)Nc1c[nH]nc1-c1nc2ccccc2[nH]1 [Compound I-30, N-[3-(1H-Benzoimidazol-2-yl)-1H-pyrazoll-4-yl]-isobutyramide]
2 | 920 | 1920 | 54.9 | CC(C)(CO)C(=O)Nc1c[nH]nc1-c1nc2ccccc2[nH]1 [Compound I-35, N-[3-(1H-Benzoimidazol-2-yl)-1H-pyrazol-4-yl]-3-hydroxy-2,2-dimethyl-propionamide]
3 | 6570 | 4170 | 278 | CC(=O)OCC(C)(C)C(=O)Nc1c[nH]nc1-c1nc2ccccc2[nH]1 [Compound I-34, Acetic acid 2-[3-(1H-benzoimidazol-2-yl)-1H-pyrazol-4-ylcarbamoyl]-2-methyl-propyl ester]
4 | 615 | 5270 | 38.9 | O=C(Nc1c[nH]nc1-c1nc2ccccc2[nH]1)C1CCCC1 [Compound I-32, Cyclopentanecarboxylic acid [3-(1H-benzoimidazol-2-yl)-1H-pyrazol-4-yl]-amide]
5 | 350 | 2600 | 21.4 | CC(C)(C)C(=O)Nc1c[nH]nc1-c1nc2ccccc2[nH]1 [Compound I-31, N-[3-(1H-Benzoimidazol-2-yl)-1H-pyrazol-4-yl]-2,2-dimethyl-propionamide]

More lines, now with the values behind:

Row | Compound | IC50 [1] [nM] | IC50 [2] [nM] | IC50 [3] [nM]
6 | O=C(Nc1c[nH]nc1-c1nc2ccccc2[nH]1)C1CCOCC1 [Compound I-33, Tetrahydro-pyran-4-carboxylic acid [3-(1H-benzoimidazol-2-yl)-1H-pyrazol-4-yl]-amide] | 3080 | 2500 | 105
7 | CC(C)NC(=O)c1c[nH]nc1-c1nc(-c2ccccc2)cs1 [Compound I-17, N-isopropyl-3-(4-phenylthiazol-2-yl)-1H-pyrazole-4-carboxamide] | 3540 | > 50000 | 761
8 | CC(C)(C)NC(=O)c1c[nH]nc1-c1nc2ccccc2s1 [Compound I-8, 3-(benzo[d]thiazol-2-yl)-N-tert-butyl-1H-pyrazole-4-carboxamide] | 146 | 46700 | 67
9 | CC(C)(CO)NC(=O)c1c[nH]nc1-c1nc2ccccc2s1 [Compound I-7, 3-(benzo[d]thiazol-2-yl)-N-(1-hydroxy-2-methylpropan-2-yl)-1H-pyrazole-4-carboxamide] | 552 | 20400 | 562
10 | CCOC(=O)c1c[nH]nc1-c1nc(-c2ccccc2)cs1 [Compound I-13, ethyl 3-(4-phenylthiazol-2-yl)-1H-pyrazole-4-carboxylate] | > 34100 | > 50000 | > 10000
11 | Cc1ccc2[nH]c(-c3ncsc3C(=O)NC(C)(C)C)nc2c1 [Compound I-29, 4-(5-Methyl-1H-benzoimidazol-2-yl)-thiazole-5-carboxylic acid tert-butylamide] | 1520 | 10400 | 46.6
12 | C[C@@H](CO)NC(=O)c1c[nH]nc1-c1nc2ccccc2s1 [Compound I-12, (S)-3-(benzo[d]thiazol-2-yl)-N-(1-hydroxypropan-2-yl)-1H-pyrazole-4-carboxamide] | 4070 | 13100 | 1690
13 | CC(C)(C)NC(=O)c1c[nH]nc1-c1nc(-c2ccccc2)cs1 [Compound I-16, N-tert-butyl-3-(4-phenylthiazol-2-yl)-1H-pyrazole-4-carboxamide] | 12200 | > 50000 | 2410
14 | O=C(NC1CCOCC1)c1c[nH]nc1-c1nc(-c2ccccc2)cs1 [Compound I-21, 3-(4-phenylthiazol-2-yl)-N-(tetrahydro-2H-pyran-4-yl)-1H-pyrazole-4-carboxamide] | 19100 | > 50000 | 209
